Measurements published in BindingDB's records for doi:10.1002/cbic.200390029 (University of Queensland Brisbane, 2003).

Biological target: T1, Phospholipase A2, membrane associated (Homo sapiens, UniProt P14555)
T1 sequence (P14555 whole entry): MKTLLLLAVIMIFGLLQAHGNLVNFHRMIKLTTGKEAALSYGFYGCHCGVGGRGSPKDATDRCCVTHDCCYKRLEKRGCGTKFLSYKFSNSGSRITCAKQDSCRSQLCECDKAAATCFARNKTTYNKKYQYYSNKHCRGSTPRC
Assay: In Vitro Colorimetric Enzyme Assay

Row | IC50 [nM] | Compound
1 | 662 | O=C(O)CC[C@@H](Cc1ccc(OCc2ccccc2)cc1)NC(=O)CCCCCc1ccccc1 [hnpsPLA2-IIa Inhibitor, 2a]
2 | 2480 | O=C(O)CC[C@@H](Cc1ccc(OCc2ccccc2)cc1)NC(=O)CCCCCCCc1ccccc1 [hnpsPLA2-IIa Inhibitor, 2c]
3 | 1820 | COc1ccccc1CCCCCCC(=O)N[C@@H](CCC(=O)O)Cc1ccc(OCc2ccccc2)cc1 [hnpsPLA2-IIa Inhibitor, 2d]
4 | 4050 | CC(=O)Nc1ccccc1CCCCCCC(=O)N[C@@H](CCC(=O)O)Cc1ccc(OCc2ccccc2)cc1 [hnpsPLA2-IIa Inhibitor, 2e]
5 | 761 | O=C(O)CC[C@@H](Cc1ccc(OCc2ccccc2)cc1)NC(=O)CCCCCCc1cccnc1 [hnpsPLA2-IIa Inhibitor, 2f]
6 | 536 | O=C(O)CC[C@@H](Cc1ccc(OCc2ccccc2)cc1)NC(=O)CCCCCCc1cccc([N+](=O)[O-])c1 [hnpsPLA2-IIa Inhibitor, 2g]
7 | 214 | O=C(O)CC[C@@H](Cc1ccc(Oc2ccccn2)cc1)NC(=O)CCCCCCc1ccccc1 [hnpsPLA2-IIa Inhibitor, 2h]
8 | 247 | O=C(O)CC[C@@H](Cc1ccc(Oc2cccnc2)cc1)NC(=O)CCCCCCc1ccccc1 [hnpsPLA2-IIa Inhibitor, 2i]
9 | 67 | O=C(O)CC[C@@H](Cc1ccc(OCC2CCCCC2)cc1)NC(=O)CCCCCCc1ccccc1 [hnpsPLA2-IIa Inhibitor, 2j]
10 | 57 | O=C(O)CC[C@@H](Cc1ccc(OCC2CCCC2)cc1)NC(=O)CCCCCCc1ccccc1 [hnpsPLA2-IIa Inhibitor, 2k]
11 | 19 | O=C(O)CC[C@@H](Cc1ccc(OCc2cccc3ccccc23)cc1)NC(=O)CCCCCCc1ccccc1 [hnpsPLA2-IIa Inhibitor, 2l]
12 | 39 | O=C(O)CC[C@@H](Cc1ccc(OCc2ccc3ccccc3c2)cc1)NC(=O)CCCCCCc1ccccc1 [hnpsPLA2-IIa Inhibitor, 2m]
13 | 116 | O=C(O)CC[C@@H](Cc1ccc(OC/C=C/c2ccccc2)cc1)NC(=O)CCCCCCc1ccccc1 [hnpsPLA2-IIa Inhibitor, 2n]
14 | 170 | CC(C)COc1ccc(C[C@H](CCC(=O)O)NC(=O)CCCCCCc2ccccc2)cc1 [hnpsPLA2-IIa Inhibitor, 2o]
15 | 86 | CCCCCCCOc1ccc(C[C@H](CCC(=O)O)NC(=O)CCCCCCc2ccccc2)cc1 [hnpsPLA2-IIa Inhibitor, 2p]
16 | 2570 | O=C(O)CC[C@@H](Cc1ccc(O)cc1)NC(=O)CCCCCCc1ccccc1 [hnpsPLA2-IIa Inhibitor, 2q]
